Starred links: 1 amine or outer side, 2 acyl side, 3 side chain; linkers in the order of their positions; H or OH if unused. Positions of bridges follow the written chain, without caps; N, C: chain ends. Non-standard residues stand in square brackets, D forms with d. Residues, ends and D or L forms follow the SMILES beside them. Groups on a side chain read outwards from the residue. *: point of attachment. NMeTrp(1-Me) = CN[C@@H](Cc1cn(C)c2ccccc12)C(=O)O; Ala(imidazol-2-yl) = N[C@@H](Cc1ncc[nH]1)C(=O)O; Trp(5-F) = N[C@@H](Cc1c[nH]c2ccc(F)cc12)C(=O)O; Trp(7-aza) = N[C@@H](Cc1c[nH]c2ncccc12)C(=O)O; X3 = O=C(CCSCc1cc(F)cc(CSCCN[*:1])c1)[*:2]; mXylylene(5-F) = Fc1cc(C[*:1])cc(C[*:2])c1; X4 = O=C(CCSCc1cccc(CSCCN[*:1])c1)[*:2]; γGlu = O=C(O)[C@H](CCC(=O)[*:2])N[*:1]; 2Nal = N[C@@H](Cc1ccc2ccccc2c1)C(=O)O; mXylylene = c1cc(C[*:1])cc(C[*:2])c1; Lys(Me2) = CN(C)CCCC[C@H](N)C(=O)O; Palmitoyl = CCCCCCCCCCCCCCCC(=O)*; NMeT = CN[C@H](C(=O)O)[C@@H](C)O; Lys(Me) = CNCCCC[C@H](N)C(=O)O; dNMeL = CN[C@H](CC(C)C)C(=O)O; αMeP = C[C@@]1(C(=O)O)CCCN1; Dab = NCC[C@H](N)C(=O)O; Nva = CCC[C@H](N)C(=O)O; Dap = NC[C@H](N)C(=O)O; AEEA = NCCOCCOCC(=O)O; Mpa = O=C(O)CCS
Target: PCSK9 (Homo sapiens (Human), UniProt Q8NBP7)
Test: PCSK9 Alexa FRET Standard assay (displacement of AlexaFluor647 tagged cyclic peptide Reagent A)
Assay type: binding
Details: PCSK9 Alexa FRET Standard assay, 0.5 nM PCSK9, 20 nM AF cyclic peptide Reagent A; read-out: IC50
Experimental: A solution containing 1 nM biotinylated PCSK9+2.5 nM Lance Streptavidin Europium (Strep-Eu) was made in 50 mM HEPES pH 7.4, 0.15 M NaCl, 5 mM CaCl2), 0.01% BSA, and 0.01% Surfactant P20. A separate solution containing 40 nM of the AlexaFluor tagged cyclic peptide was made in the same buffer system. An Echo was used to transfer 0.750 ul of compound to an assay plate followed by the addition of 15 ul of PCSK9+Stept-Eu and 15 ul of AF peptide. The final assay volume was 30.750 ul containing 0.5 nM PCSK9, 1.25 nM Strep-Eu, and 20 nM AF cyclic peptide. The reaction was incubated at room temperature for at least two hours prior to fluorescence measurements using an Envision Multilabel Reader. IC50 values were determined by fitting data to a sigmoidal dose-response curve using nonlinear regression. Ki was then calculated from the IC50 and the KD of AF cyclic peptide. Counts (B-counts) of the europium-labeled PCSK9 were followed to observe if compounds were […]. A fall off of the B-counts likely indicated a false positive of inhibition. Data from this procedure was reported as “A=‘numerical value’ (nanomolar)”

PCSK9, sequence (Q8NBP7 153-692): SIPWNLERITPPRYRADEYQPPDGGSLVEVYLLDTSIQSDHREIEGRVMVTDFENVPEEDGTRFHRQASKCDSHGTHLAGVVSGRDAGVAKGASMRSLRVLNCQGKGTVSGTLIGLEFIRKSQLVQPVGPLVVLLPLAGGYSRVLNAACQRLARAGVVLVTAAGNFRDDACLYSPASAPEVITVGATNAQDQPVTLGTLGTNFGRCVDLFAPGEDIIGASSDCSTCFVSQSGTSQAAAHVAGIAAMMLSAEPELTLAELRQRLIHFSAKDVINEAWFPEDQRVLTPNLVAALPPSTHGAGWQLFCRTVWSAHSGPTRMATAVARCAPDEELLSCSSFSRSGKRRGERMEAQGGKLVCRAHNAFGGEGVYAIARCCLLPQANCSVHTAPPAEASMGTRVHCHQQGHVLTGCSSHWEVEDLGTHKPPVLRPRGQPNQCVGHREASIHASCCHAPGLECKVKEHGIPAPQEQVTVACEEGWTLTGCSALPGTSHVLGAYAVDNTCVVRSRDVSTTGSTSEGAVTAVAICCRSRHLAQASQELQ

SMILES	IC50
CC[C@H](C)[C@@H]1NC(=O)[C@@H]2CCCN2C(=O)[C@H](Cc2c[nH]c3ccc(F)cc23)NC(=O)[C@H](Cc2c[nH]c3ccc(F)cc23)NC(=O)[C@@H](C)NC(=O)[C@H](CCCCN)NC(=O)CCSCc2cc(F)cc(c2)CSC[C@@H](C(N)=O)NC(=O)[C@]2(C)CCCN2C(=O)[C@H](Cc2ccc(OC)cc2)NC1=O [Compound 008] ([Mpa]K[dA][Trp(5-F)][Trp(5-F)]PIY(Me)[αMeP]C-NH2; linker 1-10 via mXylylene(5-F))	21 to 50 µM
NCCCC[C@@H]1NC(=O)CCSCc2cccc(c2)CSC[C@@H](C(N)=O)NC(=O)[C@@H]2CCCN2C(=O)[C@H](Cc2c[nH]c3ncccc23)NC(=O)[C@H](Cc2c[nH]cn2)NC(=O)[C@H](CC(=O)O)NC(=O)[C@H](Cc2c[nH]c3ccc(F)cc23)NC(=O)[C@H](Cc2c[nH]c3ccc(F)cc23)NC(=O)CNC1=O [Compound 235] ([Mpa]KG[Trp(5-F)][Trp(5-F)]DH[Trp(7-aza)]PC-NH2; linker 1-10 via mXylylene)	21 to 50 µM
COc1ccc(C[C@@H]2NC(=O)[C@H](Cc3ncc[nH]3)NC(=O)[C@H](CC(=O)O)NC(=O)[C@H](Cc3c[nH]c4ccc(F)cc34)NC(=O)[C@H](Cc3c[nH]c4ccc(F)cc34)NC(=O)[C@@H](C)NC(=O)[C@H](CCC(N)=O)NC(=O)CCSCc3cccc(c3)CSCCNC(=O)[C@]3(C)CCCN3C2=O)cc1 [Compound 446] (cyclo(D[Ala(imidazol-2-yl)]Y(Me)[αMeP][X4]Q[dA][Trp(5-F)][Trp(5-F)]))	1 to 12.1 µM
CCCCCCCCCCCCCCCC(=O)N[C@@H](CCC(=O)NCCOCCOCC(=O)NCCOCCOCC(=O)NCC[C@H](NC(=O)CNC(=O)CNC(=O)[C@@H]1CSCc2cccc(c2)CSCCC(=O)N[C@@H](CCCCN)C(=O)N[C@H](C)C(=O)N[C@@H](Cc2c[nH]c3ccc(F)cc23)C(=O)N[C@@H](Cc2c[nH]c3ccc(F)cc23)C(=O)N[C@@H](CC(=O)O)C(=O)N[C@@H](Cc2cnc[nH]2)C(=O)N[C@@H](Cc2ccc(O)cc2)C(=O)N2CCC[C@@]2(C)C(=O)N1)C(N)=O)C(=O)O [Compound 439] ([Mpa]K[dA][Trp(5-F)][Trp(5-F)]DHY[αMeP]CGG[Dab]([AEEA-AEEA-γGlu-Palmitoyl])-NH2; linker 1-10 via mXylylene)	21 to 50 µM
CNCCCC[C@@H]1NC(=O)CCSCc2cc(F)cc(c2)CSCCNC(=O)[C@]2(C)CCCN2C(=O)[C@H](Cc2ccc(OC)cc2)NC(=O)[C@H](Cc2ncc[nH]2)NC(=O)[C@H](CC(=O)O)NC(=O)[C@H](Cc2c[nH]c3ccc(F)cc23)NC(=O)[C@H](Cc2c[nH]c3ccc(F)cc23)NC(=O)[C@@H](C)NC1=O [Compound 468] (cyclo(D[Ala(imidazol-2-yl)]Y(Me)[αMeP][X3][Lys(Me)][dA][Trp(5-F)][Trp(5-F)]))	1 to 12.1 µM
CCC[C@@H]1NC(=O)CCSCc2cccc(c2)CSC[C@@H](C(N)=O)NC(=O)[C@@H]2CCCN2C(=O)[C@H](Cc2ccc(OC)cc2)NC(=O)[C@H]([C@@H](C)OC)N(C)C(=O)[C@@H]2CCCN2C(=O)[C@H](Cc2cn(C)c3ccccc23)N(C)C(=O)[C@H](Cc2ccc3ccccc3c2)NC(=O)[C@@H](CC(C)C)N(C)C1=O [Compound 039] ([Mpa][Nva][dNMeL][2Nal][NMeTrp(1-Me)]P[NMeT](Me)Y(Me)PC-NH2; linker 1-10 via mXylylene)	21 to 50 µM
CC(C)C[C@H]1C(=O)N[C@@H](Cc2ccc(O)cc2)C(=O)N2CCC[C@@]2(C)C(=O)N[C@H](C(N)=O)CSCc2cccc(c2)CSCCC(=O)N[C@@H](CCCCN)C(=O)NCC(=O)N[C@@H](Cc2c[nH]c3ccc(F)cc23)C(=O)N[C@@H](Cc2c[nH]c3ccc(F)cc23)C(=O)N2CCC[C@@]23CCN1C3=O [Compound 127]	0.1 to 1 µM
COc1ccc(C[C@@H]2NC(=O)[C@H](Cc3ncc[nH]3)NC(=O)[C@H](CC(=O)O)NC(=O)[C@H](Cc3c[nH]c4ccc(F)cc34)NC(=O)[C@H](Cc3c[nH]c4ccc(F)cc34)NC(=O)[C@@H](C)NC(=O)[C@H](CNC(=O)COCCOCCN)NC(=O)CCSCc3cccc(c3)CSCCNC(=O)[C@]3(C)CCCN3C2=O)cc1 [Compound 447] (cyclo(D[Ala(imidazol-2-yl)]Y(Me)[αMeP][X4][Dap](AEEA)[dA][Trp(5-F)][Trp(5-F)]))	0.1 to 1 µM
COc1ccc(C[C@@H]2NC(=O)[C@H](Cc3ncc[nH]3)NC(=O)[C@H](CC(=O)O)NC(=O)[C@H](Cc3c[nH]c4ccc(F)cc34)NC(=O)[C@H](Cc3c[nH]c4ccc(F)cc34)NC(=O)[C@@H](C)NC(=O)[C@H](CCCCN(C)C)NC(=O)CCSCc3cccc(c3)CSCCNC(=O)[C@]3(C)CCCN3C2=O)cc1 [Compound 464] (cyclo(D[Ala(imidazol-2-yl)]Y(Me)[αMeP][X4][Lys(Me2)][dA][Trp(5-F)][Trp(5-F)]))	21 to 50 µM

Source: patent US11530244B2, “Cyclic polypeptides for PCSK9 inhibition” (priority 2018, dated 2022)
